# US7226915B2, “Diaminopyrroloquinazolines compounds as protein tyrosine phosphatase inhibitors” (Hoffmann-La Roche Inc., priority 2003, dated 2007)
# Where a name gives a salt, the structure may show the parent alone.
# Molecular target: T1, Human PTP1B (1-321) (Homo sapiens, UniProt P18031)
# T1 construct: Human PTP1B (1-321) was cloned from a human cDNA library; made in house; host or cells: E. coli
# T1 sequence (P18031 1-321): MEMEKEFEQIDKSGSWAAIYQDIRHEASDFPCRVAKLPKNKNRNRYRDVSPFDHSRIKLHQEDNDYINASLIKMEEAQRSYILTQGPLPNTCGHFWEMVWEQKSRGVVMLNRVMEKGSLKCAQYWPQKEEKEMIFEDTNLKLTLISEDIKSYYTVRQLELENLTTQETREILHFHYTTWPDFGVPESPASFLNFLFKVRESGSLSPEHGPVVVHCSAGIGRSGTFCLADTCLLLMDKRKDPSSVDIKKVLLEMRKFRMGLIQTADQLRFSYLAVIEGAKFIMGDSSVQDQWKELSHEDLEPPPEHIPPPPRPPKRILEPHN
# Assay: In vitro inhibition of PTP1B (PTPase assay)
# Assay type: biochemical
# Details: one of two methods: phosphopeptide substrate TRDI(pY)E with Malachite Green, or DiFMUP fluorescence; pH 6.2; read-out: IC50 (PTP1B inhibitory activity)
# Procedure: Human PTP1B (1-321) was cloned from a human cDNA library using conventional molecular biology techniques. The cDNA sequence was identical to the published human PTP1B sequence (Accession number M33689). The protein was expressed and purified from E. coli as described by Barford D. et. al J. Mol Biol (1994) 239, 726–730.
# The measurement of PTPase activity was carried out using one of two methods:
# The first method for the measurement of PTP1B inhibitory activity a tyrosine phosphorylated peptide based on the amino acid sequence of insulin receptor tyrosine autophosphorylation site 1146 (TRDI(pY)E) was used as substrate. The reaction conditions were as follows:
# PTP1B (0.5–2 nM) was incubated with compound for 15 min in buffer containing 37.5 mM Bis-Tris buffer pH 6.2, 140 mMNaCl, 0.05% BSA and 2 mM DTT. The reaction was started by the addition of 50 μM substrate. After 20 min at room temperature (22–25° C.), the reaction was stopped with KOH and the amount of free phosphate measured using Malachite Green as previously described (Harder et al. 1994 Biochem J. 298; 395).
# The second method was used for the measurement of general PTPase inhibitory activity across a panel of PTPases the substrate (6,8-difluoro-4-methylumbelliferyl phosphate (DiFMUP; from Molecular Probes) was used at the Km for each enzyme. The buffer conditions were identical as in the Malachite Green assay. The reaction was stopped with KOH. In this case the dephosphoryated product becomes fluorescent and the fluorescense read (Excitiation:360 mM/Emmission: 460 nM).
row,IC50 [µM],Compound
1,9.47,"CN(C)c1nc(N)nc2cc(-c3ccccc3C(F)(F)F)c3c(ccn3C)c12 [Example 4, 7,N1,N1-Trimethyl-6-(2-trifluoromethyl-phenyl)-7H-pyrrolo[3,2-f]quinazoline-1,3-diamine trifluoro-acetic acid salt]"
2,10.2,"Cn1ccc2c3c(NCCCO)nc(N)nc3cc(-c3ccccc3C(F)(F)F)c21 [Example 6, 3-[3-Amino-7-methyl-6-(2-trifluoromethyl-phenyl)-7H-pyrrolo[3,2-f]quinazolin-1-ylamino]-propan-1-ol trifluoro-acetic acid salt]"
3,7.1,"Cc1ccc(-c2cc3nc(N)nc(NCCO)c3c3ccn(C)c23)s1 [Example 2, 2-[3-Amino-7-methyl-6-(5-methyl-thiophen-2-yl)-7H-pyrrolo[3,2-f]quinazolin-1-ylamino]-ethanol trifluoro-acetic acid salt]"
4,11.3,"Nc1nc(NCCO)c2c(cc(-c3ccccc3C(F)(F)F)c3c2ccn3CCO)n1 [Example 8, 2-[3-Amino-7-(2-hydroxy-ethyl)-6-(2-trifluoromethyl-phenyl)-7H-pyrrolo[3,2-f]quinazolin-1-ylamino]-ethanol trifluoro-acetic acid salt]"
